Data from US9890133B2 (priority 2011, dated 2018).
Values after ≈ are worked out from the molar mass of the structure shown.

Assay: in vitro
Details: human

Compound	CC50 [µg/mL]	CC50 (Picorana CC50) [µg/mL]
COc1cc(C(=O)NC23C(=O)c4c(N)cccc4C2(O)Oc2cc(C(C)C)ccc23)nc2ccccc12 (centres unmarked) [Example 247, N-(1-Amino-4b-hydroxy-7-isopropyl-10-oxo-9b,10-dihydro-4bH-benzo[d]indeno[1,2-b]furan-9b-yl)-4-methoxyquinoline-2-carboxamide]	> 10	20 (≈ 40.4 µM)
C=C1c2ccccc2C2(OC)Oc3cc(C(C)C)ccc3C12O (centres unmarked) [Example 129, 7-Isopropyl-4b-methoxy-10-methylene-9b,10-dihydro-4bH-indeno[1,2-b]benzofuran-9b-ol]		6.79 (≈ 22 µM)
CO[C@@]12Oc3cc(C(C)C)ccc3[C@]1(NC(N)=O)C(=O)c1ccccc12 [Example 100, 1-((4bS,9bS)-7-Isopropyl-4b-methoxy-10-oxo-9b,10-dihydro-4bH-indeno[1,2-b]benzofuran-9b-yl)urea]		40.6 (≈ 115 µM)
CCCCCC(=O)NC12C(=O)c3ccccc3C1(OC(=O)CCCCC)Oc1cc(C(C)C)ccc12 (centres unmarked) [Example 91, Hexanoic acid 9b-hexanoylamino-7-isopropyl-10-oxo-9b,10-dihydro-5-oxa-indeno[2,1-a]inden-4b-yl ester]		> 50
CC(C)c1ccc2c(c1)OC1(C)c3ccccc3C(=O)C21O (centres unmarked) [Example 134, 9b-Hydroxy-7-isopropyl-4b-methyl-4bH-indeno[1,2-b]benzofuran-10(9bH)-one]		6.69 (≈ 22.7 µM)
CC(=O)NC12C(=O)c3c(NC=O)cccc3C1(O)Oc1cc(C(C)C)ccc12 (centres unmarked) [Example 167, N-(1-Formamido-4b-hydroxy-7-isopropyl-10-oxo-9b,10-dihydro-4bH-benzo[d]-indeno[1,2-b]furan-9b-yl)acetamide]	> 10	
CCCC(=O)N[C@@]12C(=O)c3c(N)cccc3[C@]1(OC(=O)CCC)Oc1cc(C(C)C)ccc12 [Example 95, (4bR,9bS)-1-Amino-9b-butyramido-7-isopropyl-10-oxo-9b,10-dihydro-4bH-indeno[1,2-b]benzofuran-4b-yl butyrate]	26 (≈ 57.7 µM)	38.1 (≈ 84.5 µM)
CCNc1cccc2c1C(=O)C1(O)c3ccc(C(C)C)cc3OC21O (centres unmarked) [Example 133, 1-(Ethylamino)-4b,9b-dihydroxy-7-isopropyl-4bH-indeno[1,2-b]benzofuran-10(9bH)-one]		1.58 (≈ 4.66 µM)
CC(C)c1ccc2c(c1)OC1(O)c3cccc(NCc4ccccc4)c3C(=O)C21O (centres unmarked) [Example 132, 1-(Benzylamino)-4b,9b-dihydroxy-7-isopropyl-4bH-indeno[1,2-b]benzofuran-10(9bH)-one]		0.72 (≈ 1.79 µM)
CC(C)c1ccc2c(c1)OC1(O)c3cccnc3C(=O)C21O (centres unmarked) [Example 126, 4b,9b-Dihydroxy-7-isopropyl-4bH-benzofuro[2′,3′:3,4]cyclopenta[1,2-b]pyridin-10(9bH)-one]		47.1 (≈ 158 µM)
CCCCCCC(=O)NC12C(=O)c3ccccc3C1(OC(=O)CCCCCC)Oc1cc(C(C)C)ccc12 (centres unmarked) [Example 92, Heptanoic acid 9b-heptanoylamino-7-isopropyl-10-oxo-9b,10-dihydro-5-oxa-indeno[2,1-a]inden-4b-yl ester]		> 50
CC(C)c1ccc2c(c1)OC1(O)c3ccccc3C(=O)C21N=C=O (centres unmarked) [Example 69, 4b-Hydroxy-9b-isocyanato-7-isopropyl-4b,9b-dihydro-5-oxa-indeno[2,1-a]-inden-10-one]		70 (≈ 218 µM)
Cc1ccn2cc(C(=O)NC34C(=O)c5c(N)cccc5C3(O)Oc3cc(C(C)C)ccc34)nc2c1 (centres unmarked) [Example 280, N-(1-Amino-4b-hydroxy-7-isopropyl-10-oxo-9b,10-dihydro-4bH-indeno[1,2-b]benzofuran-9b-yl)-7-methylimidazo[1,2-a]pyridine-2-carboxamide]	> 10	
CCCCCCCC(=O)NC12C(=O)c3ccccc3C1(O)Oc1cc(C(C)C)ccc12 (centres unmarked) [Example 90]		34 (≈ 80.5 µM)
Cc1cc2c(cc1C)C1(O)C(=O)c3ccccc3C1(O)N2 (centres unmarked) [Example 106, 4b,9b-Dihydroxy-7,8-dimethyl-4b,5-dihydroindeno[1,2-b]indol-10(9bH)-one]		3.53 (≈ 12.5 µM)
CC(=O)NC12C(=O)c3ccccc3C1(OC(=O)Oc1ccccc1)Oc1cc(C(C)C)ccc12 (centres unmarked) [Example 121, Carbonic acid 9b-acetylamino-7-isopropyl-10-oxo-9b,10-dihydro-5-oxa-indeno[2,1-a]inden-4b-yl ester phenyl ester]		> 50
CC(C)c1ccc2c(c1)OC1(O)c3cccc(N)c3C(=O)C21NC(=O)CCl (centres unmarked) [Example 194, N-(1-Amino-4b-hydroxy-7-isopropyl-10-oxo-9b,10-dihydro-4bH-benzo[d]indeno[1,2-b]furan-9b-yl)-2-chloroacetamide]	> 10	
Cc1ccc(C(=O)NC23C(=O)c4c(N)cccc4C2(O)Oc2cc(C(C)C)ccc23)s1 (centres unmarked) [Example 216, N-(1-Amino-4b-hydroxy-7-isopropyl-10-oxo-9b,10-dihydro-4bH-indeno[1,2-b]benzofuran-9b-yl)-5-methylthiophene-2-carboxamide]	9.69 (≈ 22.3 µM)	4.75 (≈ 10.9 µM)
CC(C)c1ccc2c(c1)OC1(O)c3cccc(N)c3C(=O)C21NC(=O)C1c2ccccc2Oc2ccccc21 (centres unmarked) [Example 237, N-(1-Amino-4b-hydroxy-7-isopropyl-10-oxo-9b,10-dihydro-4bH-benzo[d]indeno[1,2-b]furan-9b-yl)-9H-xanthene-9-carboxamide]	> 10	6.27 (≈ 12.1 µM)

Compound	CC50 [µg/mL]	CC50 (Picorana CC50) [µg/mL]
CCCCCCNC12C(=O)c3ccccc3C1(O)Oc1cc(C(C)C)ccc12 (centres unmarked) [Example 67, 9b-Hexylamino-4b-hydroxy-7-isopropyl-4b,9b-dihydro-5-oxa-indeno[2,1-a]inden-10-one]		9.42 (≈ 24.8 µM)
CCCCCCCC(=O)N[C@@]12C(=O)c3c(N)cccc3[C@]1(O)Oc1cc(C(C)C)ccc12 [Example 93, N-((4bS,9bS)-1-Amino-4b-hydroxy-7-isopropyl-10-oxo-9b,10-dihydro-4bH-indeno[1,2-b]benzofuran-9b-yl)octanamide]	6.23 (≈ 14.3 µM)	8.49 (≈ 19.4 µM)
CCOC(=O)OC12Oc3cc(C(C)C)ccc3C1(NC(C)=O)C(=O)c1ccccc12 (centres unmarked) [Example 116, 9b-Acetamido-7-isopropyl-10-oxo-9b,10-dihydro-4bH-benzo[d]indeno[1,2-b]furan-4b-yl ethyl carbonate]		41.7 (≈ 102 µM)
CC(C)c1cc(C(C)C)c2c(c1)C1(O)C(=O)c3c(N)cccc3C1(O)O2 (centres unmarked) [Example 157, 1-Amino-4b,9b-dihydroxy-6,8-diisopropyl-4bH-benzo[d]indeno[1,2-b]furan-10(9bH)-one]	28.5 (≈ 80.6 µM)	> 100
CC(=O)Nc1c(N)ccc2c1C(=O)C1(O)c3ccc(C(C)C)cc3OC21O (centres unmarked) [Example 59, N-(2-Amino-4b,9b-dihydroxy-7-isopropyl-10-oxo-9b,10-dihydro-4bH-benzo[d]indeno[1,2-b]furan-1-yl)acetamide]		> 50
O=C1c2ccccc2C2(O)Oc3ccccc3C12NS(=O)(=O)C(F)(F)F (centres unmarked) [Example 178, 1,1,1-Trifluoro-N-(4b-hydroxy-10-oxo-9b,10-dihydro-4bH-benzo[d]indeno[1,2-b]furan-9b-yl)methanesulfonamide]	> 10	
CCCCNC(=O)NC12C(=O)c3c(N)cccc3C1(O)Oc1cc(C(C)C)ccc12 (centres unmarked) [Example 163, 1-(1-Amino-4b-hydroxy-7-isopropyl-10-oxo-9b,10-dihydro-4bH-indeno[1,2-b]benzofuran-9b-yl)-3-butylurea]	> 10	
CC(C)c1ccc2c(c1)OC1(O)c3cccc(N)c3C(=O)C21NC(=O)Nc1ccc(F)cc1 (centres unmarked) [Example 164, 1-(1-Amino-4b-hydroxy-7-isopropyl-10-oxo-9b,10-dihydro-4bH-indeno[1,2-b]benzofuran-9b-yl)-3-(4-fluorophenyl)urea]	> 10	
CC(=O)NC12Oc3cc(C(C)C)ccc3C1(NC(C)=O)C(=O)c1ccccc12 (centres unmarked) [Example 119]		38.2 (≈ 101 µM)
CC(C)c1ccc2c(c1)OC1(O)c3ccccc3C(=O)C21NC(=O)[C@@H](Cc1ccccc1)NC(=O)OC(C)(C)C (stereo partly drawn) [Example 185, tert-Butyl(2R)-1-(4b-hydroxy-7-isopropyl-10-oxo-9b,10-dihydro-4bH-benzo[d]indeno[1,2-b]furan-9b-ylamino)-1-oxo-3-phenylpropan-2-ylcarbamate]	> 10	7.18 (≈ 13.2 µM)
CNC(=O)OC12Oc3cc(C(C)C)ccc3C1(NC(C)=O)C(=O)c1ccccc12 (centres unmarked) [Example 118, 9b-Acetamido-7-isopropyl-10-oxo-9b,10-dihydro-4bH-benzo[d]indeno[1,2-b]furan-4b-yl methylcarbamate]		> 50
CC(C)c1ccc2c(c1)OC1(O)c3cccc(N4CCCCC4)c3C(=O)C21O (centres unmarked) [Example 141, 4b,9b-Dihydroxy-7-isopropyl-1-piperidinyl-4bH-benzo[d]indeno-[1,2-b]furan-10(9bH)-one]		3.47 (≈ 9.14 µM)
CC(C)C(=O)N1c2cc(C(C)C)ccc2C2(O)C(=O)c3ccccc3C12O (centres unmarked) [Example 145, 4b,9b-Dihydroxy-5-isobutyryl-7-isopropyl-5,9b-dihydro-4bH-indeno[1,2-b]indol-10-one]		18.3 (≈ 50.2 µM)
CC(C)c1ccc2c(c1)OC1(O)c3cccc(N)c3C(=O)C21NC(=O)c1cc(C(C)C)nc2c1cnn2C(C)C (centres unmarked) [Example 284, N-(1-Amino-4b-hydroxy-7-isopropyl-10-oxo-9b,10-dihydro-4bH-indeno[1,2-b]benzofuran-9b-yl)-1,6-diisopropyl-1H-pyrazolo[3,4-b]pyridine-4-carboxamide]	3.71 (≈ 6.88 µM)	4.56 (≈ 8.45 µM)
CO/N=C1/c2ccccc2C2(OC)Oc3cc(C(C)C)ccc3C12O (centres unmarked) [Example 130, 9b-Hydroxy-7-isopropyl-4b-methoxy-4bH-indeno[1,2-b]benzofuran-10(9bH)-one O-methyl oxime]		> 50
CC(C)c1ccc2c(c1)OC1(O)c3cccc(N)c3C(=O)C21NC(=O)c1cc2ccccn2c1 (centres unmarked) [Example 283, N-(1-Amino-4b-hydroxy-7-isopropyl-10-oxo-9b,10-dihydro-4bH-indeno[1,2-b]benzofuran-9b-yl) indolizine-2-carboxamide]	> 10	5.47 (≈ 12.1 µM)
CC(=O)Nc1ccc([N+](=O)[O-])c2c1C(=O)C1(N)c3ccc(C(C)C)cc3OC21O (centres unmarked) [Example 109, N-(9b-Amino-4b-hydroxy-7-isopropyl-4-nitro-10-oxo-9b,10-dihydro-4bH-5-oxa-indeno[2,1-a]inden-1-yl)-acetamide]		> 50
CC(C)C(=O)NC12C(=O)c3c(N)cccc3C1(O)Oc1cc(C(C)C)ccc12 (centres unmarked) [Example 77, N-(1-Amino-4b-hydroxy-7-isopropyl-10-oxo-4b,10-dihydro-5-oxa-indeno[2,1-a]inden-9b-yl)-isobutylamide]	53.9 (≈ 142 µM)	> 50
